Data as given in paper PMC5920042, “KH176 Safeguards Mitochondrial Diseased Cells from Redox Stress-Induced Cell Death by Interacting with the Thioredoxin System/Peroxiredoxin Enzyme Machinery” (Scientific Reports, 2018).
Several values for one entry are separate records, joined by “and”; a condition that tells them apart may be missing. Equal entries are not always repeated. Marks after values point to notes of the source that are not given here.

Experiments:
[1] = 28-day repeat oral dose toxicity study, toxicokinetics; format: in vivo, Beagle dogs; conditions: dog
Experimental: (§1) Pharmacokinetics and toxicokinetics measurements were performed by the commercial Contract Research Organizations Sai Life Sciences and WuXi AppTec, respectively, according to their standard protocols and in accordance with relevant guidelines and regulations. C57 BL/6 mice, Sprague Dawley rats, and Beagle dogs were studied.

P4 cell line [2] = assay: Cellular ROS assay (DCFH-DA); format: cell-based, human; conditions: P4 cells, 24 h compound treatment
Experimental: The cells were then treated for 72 h (or shorter as indicated) with culture medium containing semi-logarithmic dilutions of the test compound. Alternatively, 3 × 10^3 cells/well were seeded when cells were treated for 24 h only. At the end of the incubation period, cells were loaded with 40 µM DCFH-DA (#D6883, Sigma-Aldrich). in M199 without phenol red for 30 min. The excess of the dye was washed with ice-cold M199 without phenol red and the cells were lysed with 100 µl/well of ice-cold 0.2% Triton X-100 in M199 without phenol red after 10 min incubation in ice. Cellular debris was spun down by centrifugation at 2600 g, 5 min, +4 °C and 90 µl/well of cell lysate were transferred to a black 96-wells plate and DCF fluorescence was measured on a scanning microplate reader (BMG FLUOstar Omega; Ex. 480 nm, Em. 520 nm).

P4 cell line [3] = assay: Radical-Scavenging Capacity assay (CM-H2DCFDA, H2O2 or KO2); format: cell-based, human; conditions: P4 cells, 100 µM H2O2 or 1 mM KO2 (text: KOH), 3 µM compound
Experimental: Cells were seeded at a density of 4 × 10^3 cells/well into 96-wells black plates. After 24 h the cells were loaded with 5 µM CM-H2DCFDA in M199 without phenol red for 20 min. The dye excess was washed with M199 without phenol red and immediately after, cells were treated acutely with different concentrations of the test compounds in M199 without phenol red. To generate radicals, 100 µM H2O2 or 1 mM KO2 were injected to the compound-treated cells and CM-DCF fluorescence was measured every 2 min for 70 cycles on a scanning microplate reader (BMG FLUOstar Omega; Ex. 480 nm, Em. 520 nm). The area under the generated curves was calculated using the Origin 6.1 software (OriginLab).

[4] = Single dose pharmacokinetics and bioavailability study; format: in vivo, male C57BL/6 mice; conditions: mouse
Experimental: as §1

[5] = tested on: primary human skin fibroblasts; assay: Cellular superoxide detection by HEt oxidation; format: cell-based; conditions: basal, 24 h compound; read-out: EC50 decrease of basal cellular superoxide levels (HEt)
Experimental: The cells were seeded at a density of 3 × 10^3 cells/well into 96-wells black plates. After 24 h, the cells were incubated with different amounts of KH176(m) for 24 h. For the cellular superoxide measurements cells were then washed with M199 without phenol red and incubated with HEt (#D11347, ThermoFisher) in this same medium for 10 minutes. […] Total cellular fluorescence per well was normalized on the incubation with the probe but without compound (vehicle set as 100%). Experiments were performed at least three times with 3 wells per experiment.

[6] = tested on: primary human skin fibroblasts; assay: CumOOH induced lipid peroxidation (bodipy 581/591 C11); format: cell-based; conditions: 30 µM cumOOH
Experimental: The cells were seeded at a density of 3 × 10^3 cells/well into 96-wells black plates. After 24 h, the cells were coincubated with 500 nM bodipy 581/591 C11 (#D3861, Thermo Fisher) and different amounts of KH compound in M199 without phenol red. This medium was used in all subsequent washes and incubations. After 30 min. incubation the cells were washed twice and subsequently incubated with 30 μM cumene hydroperoxide (cumOOH). For background subtractions cells with the dye but without cumOOH were used. After 30 minutes incubation and two washes oxidized bodipy 581/591 C11 was quantified on an automated bioimager (BD Pathway 855), by using a 20x objective and Ex. 488/10 nm, Em. FURA/FITC. Total cellular fluorescence per well was normalized on the number of cellular pixels/well and normalized on the incubation with probe and cumOOH but without compound (vehicle set as 100%). Experiments were performed at least three times with 3 wells per experiment.

[7] = Single dose pharmacokinetics and bioavailability study; format: in vivo, male Sprague Dawley rats; conditions: rat, plasma
Experimental: as §1

[8] = KH176 10 mg/kg/dose BID oral, F, Day 1, plasma
[9] = KH176 10 mg/kg/dose BID oral, F, Day 28, plasma
[10] = KH176 10 mg/kg/dose BID oral, M, Day 1, plasma
[11] = KH176 10 mg/kg/dose BID oral, M, Day 28, plasma
[12] = KH176 25 mg/kg/dose BID oral, F, Day 1, plasma
[13] = KH176 25 mg/kg/dose BID oral, F, Day 28, plasma
[14] = KH176 25 mg/kg/dose BID oral, M, Day 1, plasma
[15] = KH176 25 mg/kg/dose BID oral, M, Day 28, plasma
[16] = KH176 62.5 mg/kg/dose BID oral, F, Day 1, plasma
[17] = KH176 62.5 mg/kg/dose BID oral, F, Day 28, plasma
[18] = KH176 62.5 mg/kg/dose BID oral, M, Day 1, plasma
[19] = KH176 62.5 mg/kg/dose BID oral, M, Day 28, plasma

CC1=C(C)C(=O)C(CC[C@](C)(O)C(=O)N[C@@H]2CCCNC2)=C(C)C1=O [KH176m]
AUC0–24 h Ratio KH176m/KH176 ([1]; KH176 10 mg/kg/dose BID oral, F, Day 1): 0.864 | AUC0–24 h [1, 8]: 7640 ng·h/mL | Cmax [1, 8]: 539 ng/mL | T1/2 [1, 8]: 5.4 h | AUC0–24 h Ratio KH176m/KH176 ([1]; KH176 10 mg/kg/dose BID oral, F, Day 28): 0.719 | AUC0–24 h [1, 9]: 10500 ng·h/mL | Cmax [1, 9]: 786 ng/mL | T1/2 [1, 9]: 4.7 h | AUC0–24 h Ratio KH176m/KH176 ([1]; KH176 10 mg/kg/dose BID oral, M, Day 1): 0.848 | AUC0–24 h [1, 10]: 13900 ng·h/mL | Cmax [1, 10]: 946 ng/mL | T1/2 [1, 10]: 4.7 h | AUC0–24 h Ratio KH176m/KH176 ([1]; KH176 10 mg/kg/dose BID oral, M, Day 28): 0.668 | AUC0–24 h [1, 11]: 12700 ng·h/mL | Cmax [1, 11]: 916 ng/mL | T1/2 [1, 11]: 7.7 h | AUC0–24 h Ratio KH176m/KH176 ([1]; KH176 25 mg/kg/dose BID oral, F, Day 1): 0.845 | AUC0–24 h [1, 12]: 35400 ng·h/mL | Cmax [1, 12]: 2200 ng/mL | AUC0–24 h Ratio KH176m/KH176 ([1]; KH176 25 mg/kg/dose BID oral, F, Day 28): 0.823 | AUC0–24 h [1, 13]: 32900 ng·h/mL | Cmax [1, 13]: 2170 ng/mL | AUC0–24 h Ratio KH176m/KH176 ([1]; KH176 25 mg/kg/dose BID oral, M, Day 1): 0.967 | AUC0–24 h [1, 14]: 41200 ng·h/mL | Cmax [1, 14]: 2610 ng/mL | T1/2 [1, 14]: 11.1 h | AUC0–24 h Ratio KH176m/KH176 ([1]; KH176 25 mg/kg/dose BID oral, M, Day 28): 0.970 | AUC0–24 h [1, 15]: 38700 ng·h/mL | Cmax [1, 15]: 2270 ng/mL | T1/2 [1, 15]: 14.3 h | AUC0–24 h Ratio KH176m/KH176 ([1]; KH176 62.5 mg/kg/dose BID oral, F, Day 1): 0.908 | AUC0–24 h [1, 16]: 57300 ng·h/mL | Cmax [1, 16]: 3550 ng/mL | T1/2 [1, 16]: 5.3 h | AUC0–24 h Ratio KH176m/KH176 ([1]; KH176 62.5 mg/kg/dose BID oral, F, Day 28): 0.938 | AUC0–24 h [1, 17]: 80200 ng·h/mL | Cmax [1, 17]: 4990 ng/mL | T1/2 [1, 17]: 12.2 h | AUC0–24 h Ratio KH176m/KH176 ([1]; KH176 62.5 mg/kg/dose BID oral, M, Day 1): 0.743 | AUC0–24 h [1, 18]: 68000 ng·h/mL | Cmax [1, 18]: 4020 ng/mL | T1/2 [1, 18]: 12.9 h | AUC0–24 h Ratio KH176m/KH176 ([1]; KH176 62.5 mg/kg/dose BID oral, M, Day 28): 0.835 | AUC0–24 h [1, 19]: 85200 ng·h/mL | Cmax [1, 19]: 5250 ng/mL | IC50 (P4 cell line [2]): 250 nM and 255 nM | Reduction of H2O2-induced radicals and O2.- (CM-H2DCFDA oxidation) (P4 cell line [3]): able to reduce the levels of both radicals | Brain to Plasma ratio, range (1–8 hours) ([4]; KH176 2 mg/kg i.v.): b.d. | Heart to Plasma ratio, range (1–8 hours) ([4]; KH176 2 mg/kg i.v.): 6.1–11.6 | Liver to Plasma ratio, range (1–8 hours) ([4]; KH176 2 mg/kg i.v.): 29.0–57.1 | Skeletal muscle to Plasma ratio, range (1–8 hours) ([4]; KH176 2 mg/kg i.v.): 8.2–20.5 | AUCINF ([4]; KH176 2 mg/kg i.v., plasma): 146.9 ng·h/mL | AUClast ([4]; KH176 2 mg/kg i.v., plasma): 140.0 ng·h/mL | T1/2 ([4]; KH176 2 mg/kg i.v., plasma): 0.5 h | C0 (i.v.) ([4]; KH176 2 mg/kg i.v., plasma, back extrapolated): 359.3 ng/mL | Brain to Plasma ratio, range (1–8 hours) ([4]; KH176 10 mg/kg p.o.): 0.1–19.6 | Heart to Plasma ratio, range (1–8 hours) ([4]; KH176 10 mg/kg p.o.): 2.1–14.6 | Liver to Plasma ratio, range (1–8 hours) ([4]; KH176 10 mg/kg p.o.): 12.8–94.1 | AUCINF ([4]; KH176 10 mg/kg p.o., plasma): 1260.8 ng·h/mL | AUClast ([4]; KH176 10 mg/kg p.o., plasma): 1225.2 ng·h/mL | Cmax (p.o.) ([4]; KH176 10 mg/kg p.o., plasma): 1061.8 ng/mL | Tmax ([4]; KH176 10 mg/kg p.o., plasma): 0.25 h | Skeletal muscle to Plasma ratio, range at 1 hour ([4]; KH176 10 mg/kg p.o., no concentrations detected at 8 hours): 4.4–33.8^d | EC50 [5]: 1700 nM | Potency (IC50) of KH176m relative to KH176, lipid peroxidation [6]: about 1000 fold | IC50 ([6]; bodipy 581/591 C11): 71 nM | AUCINF ([7]; KH176 2 mg/kg i.v.): 206.1 ng·h/mL | AUClast ([7]; KH176 2 mg/kg i.v.): 150.2 ng·h/mL | T1/2 ([7]; KH176 2 mg/kg i.v.): 2.3 h | C0 (i.v.) ([7]; KH176 2 mg/kg i.v., back extrapolated): 59.7 ng/mL | AUCINF ([7]; KH176 10 mg/kg p.o.): 1503.2 ng·h/mL | AUClast ([7]; KH176 10 mg/kg p.o.): 1441.1 ng·h/mL | Cmax (p.o.) ([7]; KH176 10 mg/kg p.o.): 396.4 ng/mL | Tmax ([7]; KH176 10 mg/kg p.o.): 0.5 h
